Where no end group is shown, it is not given here.

In one data set the test system is diabetic rats. The experiment in a line: Effect on glycemia in diabetic animals. The class given is in vivo. Conditions: diabetic rats fasted 4 hours; glucose 0.5 g/kg; octapeptide 2 μg/g. The protocol:
In this test, the drop in glycemia was compared after the simultaneous injection of glucose, on the one hand, and, on the other hand, either of the octapeptide at the dosage of […], or of insulin, or again of both at once. In that latter case the dosage of octapeptide used was also 2 μg/g.
The tests were carried out on diabetic rats, kept fasting for 4 hours before the injection of glucose (at the dose of 0.5 g/kg of animal).

Data set [1] relates to isolated hemidiaphragm of the rat. The experiment in a line: Consumption of glucose in vitro, isolated rat hemidiaphragm. The class given is cell-based, Wistar albino male rats. Conditions: related to the weight of tissue in grams and per hour; glucose 2 mg/ml, insulin 500 μU/ml, compound (I) 250 μg/ml. The method, then: To follow this consumption, the isolated hemidiaphragm of the rat in vitro was used. The method employed is that described by Park et al. (Effect of insulin on free glucose content of rat diaphragm in vitro - Amer. J. Physiol. 182: 12-16, 1955). The hemidiaphragm derived from Wistar albino male rats each weighing 200 to 250 g was used. The rats were fed freely for 7 days and then starved for 24 hours. The solutions studied contained 2 mg/ml of glucose, 500 μU/ml of insulin. The compound (I) was introduced at 250 μg/ml. The consumption of glucose related to the weight of tissue in grams and per hour was under these conditions: […]

The target in data set [2] is glyceraldehyde 3-phosphate dehydrogenase (Homo sapiens, UniProt P04406). The experiment in a line: Enzymatic effect in vitro: lifting of somantine inhibition of glyceraldehyde 3-phosphate dehydrogenase. The class given is biochemical. The protocol:
In this test, the compound (I) was tested for its ability to raise the inhibition of a somantine extracted from a plasma with respect to the action of glyceraldehyde 3-phosphate dehydrogenase.
To this end, the activity of the enzyme in the presence successively of somantine alone, of the compound (I) alone, and finally in the presence of somantine and of the compound (I), were measured.
In this test, the glyceraldehyde 3-phosphate dehydrogenase was used at a concentration of 0.5 μg/ml, the somantine at 25 μg/ml, and the compound (I) at 50 μg/ml.
The method used for the measurements is that of Pihl and Lang (J. Biol. Chem 237: 1356-1362, 1962).

In a further data set the test system is adult rabbits. The data set is described as follows: Effect on the in vivo effect of insulin: intravenous glucose test in the rabbit. The method, then:
The assays were carried out in the course of the tests carried out to determine the resistance to glucose injected by the intravenous route in the rabbit.
These tests were done on adult rabbits, which had been subjected to prior fasting for 24 hours. Blood was drawn off and the glucose level in the blood samples was determined. The measurement was carried out by the ferricyanide method as adapted for the "Technicon Autoanalyser" (J. Biol. Chem. 120: 51-55, 1937). In this way the glucose level on fasting, then its variation after the intravenous injection of glucose, at the dose of 1 gram per kilo, was determined. These measurements were then renewed in rabbits which had received, 5 minutes after the glucose, an intravenous injection of the compound (1) (5 μg/kg).

Data set [3] concerns mice. The experiment in a line: Influence on glycemia in mice after glucose injection. It counts as in vivo. An excerpt: Influence of octapeptide (I) on glycemia has been determined in mice under conditions similar to those described for rabbits. The experiment included two series of tests aimed at studying the immediate effects and the prolonged effects.
In the first series of tests, a simultaneous injection of glucose and of the octapeptide (I) was made, and the lowering of glycemia with respect to that of control animals which had not received glucose, was followed as a function of time.
The injections were respectively of 0.25 g of glucose and 2 mg per kilo of body weight of the animal, namely about 40 μ/g, of octapeptide (I) or […].
In the second series of tests, the mice received the product before the injection of glucose. Three injections each of 40 μg of octapeptide (I) were administered respectively 72, 48 and 24 hours before the injection of glucose.

The subject of data set [4] is insulin receptors of lipid cells. The experiment in a line: Insulin binding to trypsinated lipid cells. The class given is cell-based. The following applies: octapeptide introduced into the medium; trypsinated cells alone no longer fix insulin. An excerpt: In an attempt to elucidate the mechanism of action of the octapeptide (I) with respect to insulin, the phenomena were first studied at the level of the insulin receptors of lipid cells trypsinated to destroy said receptors.

The subject of data set [5] is mice. The data set is described as follows: Tolerance: acute and subacute toxicity study in mice. The class given is in vivo. Conditions: 1 month, daily dosages 5 to 10 times the active dosage. The protocol:
An acute and subacute toxicity study was carried out on mice for 1 month, each mouse receiving daily dosages corresponding to 5 to 10 times the active dosage.

For another data set, the system named is hepatic cells. The experiment in a line: Insulin binding to hepatic cells. The class given is cell-based. The protocol: In the same way, the ratio of insulin binding to hepatic cells placed in a suitable reaction medium was measured. When the medium contains octapeptide (I), the ratio of insulin binding to the hepatic cells increases. The result is similar if the said cells are incubated with octapeptide (I).

Data set [6] has as its system glucose receptors of the Langerhans islets. The experiment in a line: Insulin liberated by Langerhans islets removed from treated animals. It counts as in vivo. The following applies: islets removed one day or four days after injection; medium supplemented with glucose. The method, then:
Finally, the effect of the octapeptide (I) on the glucose receptors of the Langerhans islets was determined. For this purpose, the octapeptide (I) was injected into animals.
One day or four days later, the animals were killed and the islets of Langerhans removed. The latter were placed in a reaction medium supplemented with glucose, and the amount of insulin liberated was determined and compared to controls.

Sequence of glyceraldehyde 3-phosphate dehydrogenase (P04406 whole entry, species assumed): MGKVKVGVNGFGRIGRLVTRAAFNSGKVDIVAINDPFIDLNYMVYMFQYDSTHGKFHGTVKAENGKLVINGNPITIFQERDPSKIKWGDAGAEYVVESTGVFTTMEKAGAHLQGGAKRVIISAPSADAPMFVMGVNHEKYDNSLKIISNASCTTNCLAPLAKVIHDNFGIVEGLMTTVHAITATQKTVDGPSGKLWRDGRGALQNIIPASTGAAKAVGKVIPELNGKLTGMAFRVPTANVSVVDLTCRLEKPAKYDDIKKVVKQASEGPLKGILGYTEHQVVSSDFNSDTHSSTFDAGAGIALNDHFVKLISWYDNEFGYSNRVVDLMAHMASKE

Turning to “insulin: insulin; in the hemidiaphragm test 500 μU/ml in a 2 mg/ml glucose solution [reference compound]”, the “course of glycemia after glucose injection (in words)” value with diabetic rats is listed as “decreases rapidly, stabilises, then rises again”. Besides, the “Consumption of glucose” value in data set [1] was 4.10 ± 0.15 mg.
With “LSRLFDNA [compound (I), leucyl - seryl - arginyl - leucyl - phenylalanyl - aspartyl - asparaginyl - alanine]”, in [2] (compound (I) 50 μg/ml together with somantine 25 μg/ml), the “effect on the inhibiting effect of somantine (in words)” value is “inhibiting effect of somantine to be partly suppressed”. Moreover, the “effect on the activity of the enzyme (in words)” value in data set [2] (compound (I) alone, 50 μg/ml) is on record as “practically without effect on the activity of the enzyme”. The “decrease in the blood glucose level after intravenous glucose (in words)” value in the data set with adult rabbits (rabbits fasted 24 hours, glucose 1 g/kg i.v., compound 5 μg/kg i.v. 5 minutes after the glucose) was “decrease in the glucose level is greater”. Moreover, the “glucose level reached, compared with fasting level (in words)” value in the data set with adult rabbits (rabbits, glucose 1 g/kg i.v., compound 5 μg/kg i.v.) is recorded as “glucose level even reached values less than those which were measured in the fasting rabbits”. For the same substance, the “persistence of the effect on carbohydrate metabolism (in words)” value in the data set on adult rabbits (similar tests at intervals of several days after the injection) was “persists several days”. Further, the “drop in glycemia, immediate effect (in words)” value with mice [3] (simultaneous injection of glucose 0.25 g and octapeptide 2 mg per kilo) is on record as “drop in glycemia distinctly more accentuated”. In addition, the “drop in glycemia, prolonged effect (in words)” value in the data set on mice [3] (three injections of 40 μg at 72, 48 and 24 hours before glucose, versus control mice receiving only glucose) was “more rapid drop in glycemia”. Moreover, the “course of glycemia after glucose injection (in words)” value in the data set with diabetic rats is given as “glycemia is practically unmodified”. Besides, the “insulin binding to trypsinated lipid cells (in words)” value in data set [4] is reported as “the binding reappears”. In addition, in the data set with mice [5], the “toxic effect, macro and microscopic studies (in words)” value is recorded as “not shown any toxic effect”. Moreover, the “ratio of insulin binding to hepatic cells (in words)” value in the data set with hepatic cells (cells incubated with octapeptide (I)) is “similar”; in the data set on hepatic cells (medium contains octapeptide (I)) it was “increases”. In addition, the “level of liberated insulin compared to controls (in words)” value in [6] is recorded as “very substantial increase”.
